From patent US11207461B2, “Drug delivery system and method for controlled and continuous delivery of drugs into the brain by bypassing the blood brain barrier” (priority 2015, dated 2021)

Tests used:
[1] = rabbit
Text: The device was surgically placed in a rabbit in the maxillary sinus region by removing the bone overlying the respiratory mucosa. The tip of the device was placed beneath the maxillary sinus lining mucosa in contact with the connective tissue side of the mucosa. […] FIG. 15 refers to the comparative brain values of dopamine using High Performance Liquid Chromatography, between the control and the rabbit in which dopamine was delivered in vivo in a continuous and controlled manner under the maxillary sinus mucosa using the drug delivery system. […] The drug delivery was stopped at the twentieth minute. […] FIG. 16 refers to blood values of dopamine in the rabbit after in vivo delivery of dopamine under the maxillary sinus mucosa using the device.

[2] = rabbit; blood samples before and at 10, 20 and 30 minutes after start of drug delivery; FIG. 18
Procedure: The device was placed into the maxillary sinus of a rabbit by perforating the maxillary sinus mucosa from the connective tissue side and placing the implant tip into the sinus cavity and above the epithelial layer. […] Whole body perfusion was done using a peristaltic pump with warm physiological saline for 20 minutes at a controlled rate. The perfused brain was then resected at the end one hour from the start of the procedure. Brain samples from different parts of the brain was analyzed using High Performance Liquid Chromatography. […] During the procedure, a blood sample was collected before drug delivery. Three blood samples were then collected at intervals of 10, 20 and 30 minutes respectively following start of drug delivery. The samples were analyzed using High Performance Liquid Chromatography.

## NCCc1ccc(O)c(O)c1 [Dopamine]
[1]; blood sample at 30 minutes, delivery stopped at the twentieth minute, FIG. 16
  blood value of dopamine (HPLC) after drug delivery was stopped: peaked again
[1]; blood samples at 10 and 20 minutes after start of drug delivery, versus sample before delivery, FIG. 16
  blood values of dopamine (HPLC) during drug delivery: dipped
[1]; dopamine infused under maxillary sinus mucosa, during the 20 minute delivery
  drug in peripheral circulation during drug delivery: no increase of the drug in peripheral circulation
[1]; infused under maxillary sinus mucosa for twenty minutes at 1 milliliter per hour, perfused brain resected at one hour, samples from different parts of the brain, FIG. 15
  brain concentration of dopamine (HPLC) compared with the normal: increased concentration of dopamine in all parts of the brain except diencephalon

## CCN(CC)CC(=O)Nc1c(C)cccc1C [Lignocaine]
[2]
  blood values of lignocaine (HPLC), drug in peripheral circulation: no drug in the peripheral circulation
